Target: GerA complex (GerAA-GerAB-GerAC) (Bacillus subtilis, UniProt P07869)
Assay: membrane depolarisation, DiSC3
Format: cell-based
Details: 50 mM L-alanine; 30 min after addition; agonist, recognised by GerAB subunit

Chain of GerA complex (GerAA-GerAB-GerAC) (P07869 whole entry): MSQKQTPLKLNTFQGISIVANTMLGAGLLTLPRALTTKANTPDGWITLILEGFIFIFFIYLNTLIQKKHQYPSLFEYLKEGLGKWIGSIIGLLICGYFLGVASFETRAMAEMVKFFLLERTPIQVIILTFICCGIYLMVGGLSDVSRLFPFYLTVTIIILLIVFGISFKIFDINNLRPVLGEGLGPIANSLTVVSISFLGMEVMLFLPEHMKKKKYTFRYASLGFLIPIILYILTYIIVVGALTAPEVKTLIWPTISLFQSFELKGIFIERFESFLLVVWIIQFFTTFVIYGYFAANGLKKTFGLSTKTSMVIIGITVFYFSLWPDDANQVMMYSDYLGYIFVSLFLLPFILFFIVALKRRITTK
Chain of GerA complex (GerAA-GerAB-GerAC) (P07870 18-373, further chain): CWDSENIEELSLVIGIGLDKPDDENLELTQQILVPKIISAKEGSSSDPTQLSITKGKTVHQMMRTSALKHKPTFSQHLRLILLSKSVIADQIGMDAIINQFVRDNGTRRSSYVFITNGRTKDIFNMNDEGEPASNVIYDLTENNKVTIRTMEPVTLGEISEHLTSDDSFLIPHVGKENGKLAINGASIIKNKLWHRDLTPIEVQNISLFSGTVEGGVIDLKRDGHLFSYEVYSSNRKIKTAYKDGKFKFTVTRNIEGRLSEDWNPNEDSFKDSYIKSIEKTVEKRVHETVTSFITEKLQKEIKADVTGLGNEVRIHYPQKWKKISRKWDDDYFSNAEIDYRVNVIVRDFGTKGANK
Chain of GerA complex (GerAA-GerAB-GerAC) (P07868 whole entry, further chain): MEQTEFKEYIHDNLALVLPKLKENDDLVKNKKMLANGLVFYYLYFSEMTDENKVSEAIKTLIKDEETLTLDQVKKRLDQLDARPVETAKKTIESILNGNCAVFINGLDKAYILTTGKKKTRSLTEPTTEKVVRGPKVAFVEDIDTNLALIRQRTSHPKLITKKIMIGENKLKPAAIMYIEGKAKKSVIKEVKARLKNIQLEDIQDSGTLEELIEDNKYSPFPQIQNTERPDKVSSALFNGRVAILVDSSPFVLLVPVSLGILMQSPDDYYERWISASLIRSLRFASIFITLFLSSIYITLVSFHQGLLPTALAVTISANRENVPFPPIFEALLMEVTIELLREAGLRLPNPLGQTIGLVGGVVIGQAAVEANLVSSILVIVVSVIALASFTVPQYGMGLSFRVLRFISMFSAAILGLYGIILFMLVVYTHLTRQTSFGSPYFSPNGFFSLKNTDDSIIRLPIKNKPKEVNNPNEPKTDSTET

SMILES: C[C@H](N)C(=O)O [L-alanine]
- % reduction in DiSC3(5) fluorescence at 50 mM: 30%
